Reference: patent US8822705B2, “Pharmaceutical composition for preventing and/or treating bone disease, functional food or health food and pharmaceutical preparation comprising thereof as active ingredient” (priority 2006, dated 2014)
Entries after “also recorded” stand apart in the source; their conditions may differ.

Experiments:
MC3T3-E1 cells [1] = assay: Calcification of calcium by osteoblast, Alizarin red S staining; assay type: cell-based, mouse
Description: (§1) MC3T3-E1 cells, pre-osteoblast cells, were suspended in α-MEM and plated in each well of the 96 well-microplate with 4×10^3 cells/well. Then, they were pre-incubated for 2 days at 37° C., 5% CO2 incubator. On day 3 from the beginning of the pre-incubation, culture medium in the wells were changed to α-MEM containing each concentration of test sample, 50 μg/mL of ascorbic acid and 10 mM β-glycerophosphoric acid, and then incubated for 7 to 21 days. In the incubation, the culture medium in the wells was exchanged in every 3 or 4 days.
Calcification of osteoblast cells were confirmed by Alizarin red S staining.
Effects of the above-mentioned four compounds and glycosides to the calcification of calcium by osteoblast were shown in FIG. 5.

MC3T3-E1 cells [2] = assay: Cytotoxicity by Cell Counting kit-8 or MTT (total cell numbers); assay type: cell-based, mouse; conditions: for cell number decreasing (cytotoxicity): by 30 μM
Description: After incubation of the same condition as described above, cytotoxicity was measured by using the Cell counting kit-8 or MTT according to the conventional method.
Cytotoxicity was measured by using Cell Counting kit-8 or MTT according to conventional method, after MC3T3-E1 was incubated in the same conditions as (2) described above.

MC3T3-E1 cells [3] = assay: Osteoblast differentiation, ALP activity in MC3T3-E1 cells; assay type: cell-based, mouse; conditions: incubated 7 to 21 days with test sample, absorbance at 405 nm, FIGS. 1A to 1D
Description: as §1
After the incubation period, the cells were fixed by using methanol. After drying the dish, activity of alkaline phosphatase (ALP), a marker enzyme of early stage osteoblast differentiation, was measured, and subjected to ALP staining.
In the measurement of ALP activity, a buffer containing 6.7 mM p-nitrophenylphosphate as a substrate, supplemented 2 mM magnesium chloride and 100 mM tris-HCl, pH 8.5. 100 μL of the buffer was plated in each well, incubated in 30 minutes at 37° C. Then, 100 μl of 0.1 N sodium hydroxide was added to the wells to terminate the reaction. After that, the absorbance at 405 nm was measured by using the plate reader and the absorbance value was used as ALP activity.
In ALP staining, the buffer containing 0.1 mg/ml naphtol AS-MX phosphate, 0.6 mg/ml fast blue BB salt, supplemented 2 mM magnesium chloride and 10 mM tris-HCl pH 8.5 was used. 50 μL of the buffer was added to each well of the 96 well-microplate and incubated for 30 minutes to 1 hour to stain.

[4] = system: excised first molar of C57BL/6 mice grafted under capsule of kidney; assay: Graft culture of excised tooth with impregnated agarose beads under kidney capsule, alveolar bone formation; assay type: in vivo, mouse; conditions: three agarose beads impregnated in 100 μM acerogenin A embedded into dental pulp, 3 weeks graft culture, compared to D-PBS bead negative control; FIG. 4B
Description: Agarose beads impregnated in acerogenin A (hereinbelow, it is referred to as “acerogenin A-impregnated beads”) were prepared as follows. acerogenin A was diluted to 100 μM (at final concentration) by using D-PBS. Affi-Gel agarose beads were washed by using PBS. Washed agarose beads were placed in the 1.5 mL Eppendorf tube with flat bottom and 100 μL of the acerogenin A solution was added into it. Then, the tube was incubated at room temperature for 45 minutes to impregnated acerogenin A into the agarose beads. Acerogenin-impregnated agarose beads obtained were used for embedding under dental pulp in below.
Alternatively, as negative control, agarose beads similarly to prepare the acerogenin A-impregnated beads but impregnated in D-PBS without acerogenin A (hereinbelow, it is referred to as “D-PBS-impregnated beads”) were used.
Five days age of […] mice, where their dental roots-periodontal tissue was just before formed, were anesthetized and sacrificed by decapitation. After excised lower jaw of them, the first molars in the lower jaw were excised with dental follicles. For the test group, three acerogenin A-impregnated agarose beads were embedded into the dental pulp of the excised teeth, the first molar in the lower jaw. […]

SMILES | calcification activity level of calcium, rank order (MC3T3-E1 cells [1]) | cell number decreasing (cytotoxicity) (MC3T3-E1 cells [2]; FIGS. 2B and D) | cell numbers (cytotoxicity) (MC3T3-E1 cells [2]; by 100 μM, FIGS. 2B and D) | ALP activity (early stage osteoblast differentiation) (MC3T3-E1 cells [3]) | cell numbers (cytotoxicity) (MC3T3-E1 cells [2]; FIGS. 2A and C) | cell numbers (cytotoxicity) at high concentration (MC3T3-E1 cells [2]; FIGS. 2A and C) | alveolar bone formation of grafted tooth [4]
Oc1ccc2cc1Oc1ccc(cc1)CCCC[C@@H](O)CC2 [(R)-acerogenin B, 2-Oxatricyclo[13.2.2.13,7]eicosa-3,5,7(20),15,17,18-hexaene-4,10-diol, (10R)-(9CI)] | (R)-acerogenin B>aceroside I≅acerogenin A>aceroside B1 | not observed | not affected | enhanced ALP activity |  |  | 
Oc1ccc2cc1Oc1ccc(cc1)CC[C@H](O)CCCC2 [acerogenin A, 2-Oxatricyclo[13.2.2.13,7]eicosa-3,5,7 (20),15,17,18-hexaene-4,12-diol, (12R)-(9CI)] | (R)-acerogenin B>aceroside I≅acerogenin A>aceroside B1 |  |  | enhanced ALP activity | not affected | slightly decreased | prominent extension of alveolar bone formation
OC[C@H]1O[C@@H](Oc2ccc3cc2Oc2ccc(cc2)CCCC[C@@H](O)CC3)[C@H](O)[C@@H](O)[C@@H]1O [aceroside B1, α-D-Glucopyranoside,(10R)-10-hydroxy-2-oxatricyclo[13.2.2.13,7]eicosa-3,5,7(20),15,17,18-hexaen-4-yl (9CI)] | (R)-acerogenin B>aceroside I≅acerogenin A>aceroside B1 | not observed | not affected | enhanced ALP activity |  |  | 
OC[C@H]1O[C@H](Oc2ccc3cc2Oc2ccc(cc2)CC[C@@H](O)CCCC3)[C@H](O)[C@@H](O)[C@@H]1O [aceroside I, α-D-Glucopyranoside, (12S)-12-hydroxy-2-oxatricyclo[13.2.2.13,7]eicosa-3,5,7(20),15,17,18-hexaen-4-yl (9CI)] | (R)-acerogenin B>aceroside I≅acerogenin A>aceroside B1 |  |  | enhanced ALP activity; also recorded: dose-dependently enhanced | not affected | slightly decreased | 
